Measurements reported in the NIST ThermoML archive (doi:10.1021/je8007759).

Test: xn = mol fraction of the nth substance listed

CC1CCC(=O)O1 (stereo not given) [γ-valerolactone] + O=C=O
Fluid (supercritical or subcritical phases), Pycnometric method
Settings	mass density [kg/m3]
327.9 K, 12360 kPa, x1 = 0.1	876
327.9 K, 12500 kPa, x1 = 0.05	784
327.9 K, 12510 kPa, x1 = 0.025	726
327.9 K, 12630 kPa, x1 = 0.01	657
327.9 K, 12640 kPa, x1 = 0.15	937
327.9 K, 12700 kPa, x1 = 0.05	790
327.9 K, 12720 kPa, x1 = 0.025	735
327.9 K, 12740 kPa, x1 = 0.1	882
327.9 K, 12920 kPa, x1 = 0.05	795
327.9 K, 13010 kPa, x1 = 0.025	745
327.9 K, 13120 kPa, x1 = 0.15	941
327.9 K, 13130 kPa, x1 = 0.1	888
327.9 K, 13160 kPa, x1 = 0.05	800
327.9 K, 13320 kPa, x1 = 0.025	755
327.9 K, 13370 kPa, x1 = 0.1	891
327.9 K, 13410 kPa, x1 = 0.05	805
327.9 K, 13520 kPa, x1 = 0.15	943
327.9 K, 13640 kPa, x1 = 0.1	894
327.9 K, 13660 kPa, x1 = 0.025	765
327.9 K, 13700 kPa, x1 = 0.05	811
327.9 K, 13980 kPa, x1 = 0.15	947
327.9 K, 14010 kPa, x1 = 0.05	817
327.9 K, 14060 kPa, x1 = 0.025	776
327.9 K, 14180 kPa, x1 = 0.1	900
327.9 K, 14330 kPa, x1 = 0.05	823
327.9 K, 14440 kPa, x1 = 0.15	949
327.9 K, 14700 kPa, x1 = 0.05	829
327.9 K, 14780 kPa, x1 = 0.1	907
327.9 K, 14900 kPa, x1 = 0.15	952
327.9 K, 15080 kPa, x1 = 0.05	835
327.9 K, 15410 kPa, x1 = 0.1	913
327.9 K, 15460 kPa, x1 = 0.15	956
327.9 K, 15940 kPa, x1 = 0.15	959
327.9 K, 16050 kPa, x1 = 0.1	919
327.9 K, 16480 kPa, x1 = 0.15	962
327.9 K, 17080 kPa, x1 = 0.15	965
332.8 K, 12270 kPa, x1 = 0.025	651
332.8 K, 12280 kPa, x1 = 0.025	652
332.8 K, 12340 kPa, x1 = 0.025	655
332.8 K, 12390 kPa, x1 = 0.025	659
332.8 K, 12460 kPa, x1 = 0.025	663
332.8 K, 12530 kPa, x1 = 0.025	667
332.8 K, 12600 kPa, x1 = 0.025	671
332.8 K, 12680 kPa, x1 = 0.025	675
332.8 K, 12840 kPa, x1 = 0.025	683
332.8 K, 12980 kPa, x1 = 0.025	690
332.8 K, 13130 kPa, x1 = 0.025	696
332.8 K, 13420 kPa, x1 = 0.025	710
332.8 K, 13670 kPa, x1 = 0.025	718
332.8 K, 13940 kPa, x1 = 0.025	728
332.8 K, 14270 kPa, x1 = 0.025	738
332.8 K, 14540 kPa, x1 = 0.025	744
332.8 K, 14820 kPa, x1 = 0.025	752
332.8 K, 15190 kPa, x1 = 0.025	761
332.9 K, 11320 kPa, x1 = 0.01	487
332.9 K, 11330 kPa, x1 = 0.01	488
332.9 K, 11340 kPa, x1 = 0.01	490
332.9 K, 11350 kPa, x1 = 0.01	491
332.9 K, 11370 kPa, x1 = 0.01	493
332.9 K, 11380 kPa, x1 = 0.01	494
332.9 K, 11400 kPa, x1 = 0.01	496
332.9 K, 11410 kPa, x1 = 0.01	497
332.9 K, 11420 kPa, x1 = 0.01	498
332.9 K, 11440 kPa, x1 = 0.01	500
332.9 K, 11450 kPa, x1 = 0.01	501
332.9 K, 11470 kPa, x1 = 0.01	503
332.9 K, 11490 kPa, x1 = 0.01	506
332.9 K, 11520 kPa, x1 = 0.01	509
332.9 K, 11560 kPa, x1 = 0.01	511
332.9 K, 11600 kPa, x1 = 0.01	515
332.9 K, 11630 kPa, x1 = 0.01	518
332.9 K, 11660 kPa, x1 = 0.01	521
332.9 K, 11700 kPa, x1 = 0.01	524
332.9 K, 11730 kPa, x1 = 0.01	527
332.9 K, 11770 kPa, x1 = 0.01	531
332.9 K, 11810 kPa, x1 = 0.01	534
332.9 K, 11850 kPa, x1 = 0.01	537
332.9 K, 11890 kPa, x1 = 0.01	540
332.9 K, 11940 kPa, x1 = 0.01	543
332.9 K, 11990 kPa, x1 = 0.01	547
332.9 K, 12040 kPa, x1 = 0.01	551
332.9 K, 12090 kPa, x1 = 0.01	554
332.9 K, 12140 kPa, x1 = 0.01	558
332.9 K, 12190 kPa, x1 = 0.01	561
332.9 K, 12240 kPa, x1 = 0.01	565
332.9 K, 12290 kPa, x1 = 0.01	569
332.9 K, 12340 kPa, x1 = 0.01	573
332.9 K, 12390 kPa, x1 = 0.01	576
332.9 K, 12460 kPa, x1 = 0.01	580
332.9 K, 12530 kPa, x1 = 0.01	584
332.9 K, 12590 kPa, x1 = 0.01	588
332.9 K, 12600 kPa, x1 = 0.15	914
332.9 K, 12670 kPa, x1 = 0.01	592
332.9 K, 12750 kPa, x1 = 0.15	916
332.9 K, 12800 kPa, x1 = 0.01	600
332.9 K, 12820 kPa, x1 = 0.05	743
332.9 K, 12860 kPa, x1 = 0.05	743
332.9 K, 12920 kPa, x1 = 0.05	746
332.9 K, 12950 kPa, x1 = 0.01	608
332.9 K, 13060 kPa, x1 = 0.05	751
332.9 K, 13070 kPa, x1 = 0.1	854
332.9 K, 13090 kPa, x1 = 0.15	919
332.9 K, 13110 kPa, x1 = 0.01	617
332.9 K, 13170 kPa, x1 = 0.1	856
332.9 K, 13220 kPa, x1 = 0.05	755
332.9 K, 13270 kPa, x1 = 0.1	858
332.9 K, 13330 kPa, x1 = 0.01	628
332.9 K, 13380 kPa, x1 = 0.05	760
332.9 K, 13420 kPa, x1 = 0.1	861
332.9 K, 13440 kPa, x1 = 0.15	922
332.9 K, 13550 kPa, x1 = 0.05	766
332.9 K, 13550 kPa, x1 = 0.1	863
332.9 K, 13730 kPa, x1 = 0.1	865
332.9 K, 13730 kPa, x1 = 0.15	925
332.9 K, 13760 kPa, x1 = 0.05	770
332.9 K, 13890 kPa, x1 = 0.1	867
332.9 K, 13960 kPa, x1 = 0.05	776
332.9 K, 14060 kPa, x1 = 0.1	870
332.9 K, 14160 kPa, x1 = 0.05	781
332.9 K, 14250 kPa, x1 = 0.15	928
332.9 K, 14260 kPa, x1 = 0.1	873
332.9 K, 14400 kPa, x1 = 0.05	786
332.9 K, 14470 kPa, x1 = 0.1	876
332.9 K, 14620 kPa, x1 = 0.15	931
332.9 K, 14680 kPa, x1 = 0.05	792
332.9 K, 14680 kPa, x1 = 0.1	878
332.9 K, 14960 kPa, x1 = 0.05	798
332.9 K, 15000 kPa, x1 = 0.15	933
332.9 K, 15140 kPa, x1 = 0.1	884
332.9 K, 15260 kPa, x1 = 0.05	803
332.9 K, 15420 kPa, x1 = 0.1	888
332.9 K, 15420 kPa, x1 = 0.15	937
332.9 K, 15550 kPa, x1 = 0.05	809
332.9 K, 15660 kPa, x1 = 0.1	891
332.9 K, 15840 kPa, x1 = 0.15	940
332.9 K, 15950 kPa, x1 = 0.1	894
332.9 K, 16260 kPa, x1 = 0.1	897
332.9 K, 16380 kPa, x1 = 0.15	943
332.9 K, 16560 kPa, x1 = 0.1	900
332.9 K, 16870 kPa, x1 = 0.1	904
332.9 K, 17190 kPa, x1 = 0.1	907
337.9 K, 14310 kPa, x1 = 0.1	841
337.9 K, 14470 kPa, x1 = 0.1	844
337.9 K, 14580 kPa, x1 = 0.1	846
337.9 K, 14740 kPa, x1 = 0.1	848
337.9 K, 14900 kPa, x1 = 0.1	851
337.9 K, 15020 kPa, x1 = 0.1	852
337.9 K, 15200 kPa, x1 = 0.1	855
337.9 K, 15360 kPa, x1 = 0.1	857
337.9 K, 15580 kPa, x1 = 0.1	859
337.9 K, 15740 kPa, x1 = 0.1	862
337.9 K, 15940 kPa, x1 = 0.1	864
337.9 K, 16190 kPa, x1 = 0.1	868
337.9 K, 16420 kPa, x1 = 0.1	871
337.9 K, 16660 kPa, x1 = 0.1	874
337.9 K, 16920 kPa, x1 = 0.1	877
337.9 K, 17400 kPa, x1 = 0.1	883

mass density [kg/m3], high pressure variable cell
Settings	327.9 K	332.8 K	332.9 K
Gas, x1 = 0.01	496	–	486
Gas, x1 = 0.025	660	649	–
Gas, x1 = 0.05	753	–	742
Liquid, x1 = 0.1	863	–	851
Liquid, x1 = 0.15	925	–	913

Liquid, high pressure variable cell
Settings	Critical density [kg/m3]
x1 = 0.025	679
x1 = 0.05	774
x1 = 0.1	837
